Test results taken from EPA's ToxRefDB 2.

What was measured:
dog [1] = details: Subchronic oral toxicity in nonrodent, beagle, Gavage/Intubation, dose end: 14 week, group: systemic
rat [2] = details: Other (NonGuideline or Guideline Not Listed); sprague dawley; Oral; Gavage/Intubation; dose end: 1 day; group: cannot be grouped; systemic / in life observation / clinical signs / salivation + systemic / in life observation / clinical signs / urogenital staining
rabbit [3] = details: Sub-acute repeat dose toxicity, Oral, Gavage/Intubation, dose end: 5 day, group: systemic
rabbit [4] = details: Sub-acute repeat dose toxicity; Oral; Gavage/Intubation; dose end: 5 day; group: systemic; systemic / in life observation / food consumption / food consumption
rat [5] = details: Subchronic dermal toxicity, sprague dawley, Topical, dose end: 21 day, group: systemic
rat [6] = details: Subchronic oral toxicity in rodents, sprague dawley, Gavage/Intubation, dose end: 13 week, group: systemic, systemic / clinical chemistry / thyroxine (t4) / thyroxine (t4), total + systemic / organ weight / thyroid gland / absolute + systemic / …
rabbit [7] = details: Prenatal developmental toxicity study, new zealand white, Oral, Gavage/Intubation, dose end: 19 GD
dog [8] = details: Subchronic oral toxicity in nonrodent, beagle, Gavage/Intubation, dose end: 3 month, group: systemic, systemic / hematology / blood clotting / blood clotting - activated partial thromboplastin time + systemic / hematology / blood clotting / …
rat [9] = details: Prenatal developmental toxicity study; sprague dawley; Oral; Gavage/Intubation; dose end: 17 GD; group: maternal; systemic / in life observation / body weight / body weight gain
rabbit [10] = details: Prenatal developmental toxicity study, new zealand white, Oral, Gavage/Intubation, dose end: 19 GD; remark: listed apart in the source
rat [11] = details: Sub-acute repeat dose toxicity; sprague dawley; Oral; Gavage/Intubation; dose end: 4 week; group: systemic; systemic / hematology / blood clotting / blood clotting - activated partial thromboplastin time + systemic / hematology / blood clotting / …
rabbit [12] = details: Prenatal developmental toxicity study, new zealand white, Oral, Gavage/Intubation, dose end: 19 GD; remark: listed apart in the source
dog [13] = details: Sub-acute repeat dose toxicity; beagle; Oral; Gavage/Intubation; dose end: 4 week; group: systemic; systemic / hematology / blood clotting / blood clotting - prothrombin time + systemic / hematology / blood clotting / blood clotting - …
rat [14] = details: Prenatal developmental toxicity study, sprague dawley, Oral, Gavage/Intubation, dose end: 17 GD
rat [15] = details: Fertility (Segment I); sprague dawley; Oral; Gavage/Intubation; dose end: 7 GD; group: parental; systemic / in life observation / food consumption / food consumption + systemic / organ weight / uterus / nos
rat [16] = details: Chronic toxicity, sprague dawley, Oral, Gavage/Intubation, dose end: 6 month, group: systemic
mouse [17] = details: Subchronic oral toxicity in rodents, other, Feed, dose end: 13 week, group: systemic, systemic / clinical chemistry / [other] / [other] + systemic / clinical chemistry / alderin epoxidase / alderin epoxidase + systemic / …
mouse [18] = details: Combined chronic toxicity/carcinogenicity; other; Oral; Feed; dose end: 104 week; group: systemic; systemic / pathology microscopic / blood / leukemia + systemic / pathology microscopic / blood / lymphoma nos + systemic / pathology …
rat [19] = details: Subchronic oral toxicity in rodents, wistar, Feed, dose end: 98 day, group: systemic
rat [20] = details: Chronic toxicity; wistar; Oral; Feed; dose end: 92 week; group: cholinesterase; cholinesterase / cholinesterase / cholinesterase / erythrocyte cholinesterase (che) + cholinesterase / cholinesterase / cholinesterase / …
rat [21] = details: Subchronic oral toxicity in rodents, wistar, [Not Specified], dose end: 6 month
dog [22] = details: Chronic toxicity, beagle, Oral, Feed, dose end: 52 week
rat [23] = details: Prenatal developmental toxicity study, sprague dawley, Oral, Gavage/Intubation, dose end: 15 GD
[24] = systemic / clinical chemistry / chloride / chloride + systemic / clinical chemistry / phosphorus / phosphorus + systemic / clinical …
[25] = systemic / clinical chemistry / phosphorus / phosphorus + systemic / pathology microscopic / bone / [other]
[26] = systemic / in life observation / body weight / body weight + systemic / in life observation / food consumption / food consumption
[27] = systemic / in life observation / food consumption / food consumption
[28] = systemic / clinical chemistry / triiodothyronine (t3) / triiodothyronine (t3), total
[29] = group: developmental, developmental / developmental malformation / brain / hydrocephaly + developmental / developmental malformation / mouth / jaw / cleft palate…
[30] = group: maternal, systemic / in life observation / body weight / body weight gain + systemic / in life observation / food consumption / food consumption + …
[31] = group: developmental, developmental / developmental malformation / general / [other] + systemic / in life observation / body weight / fetal weight
[32] = group: maternal, systemic / in life observation / body weight / body weight gain + systemic / in life observation / clinical signs / alopecia + systemic / in…
[33] = group: developmental, systemic / in life observation / body weight / fetal weight
[34] = group: maternal, systemic / in life observation / body weight / body weight gain + systemic / in life observation / food consumption / food consumption
[35] = group: developmental, developmental / developmental malformation / bone / supernumerary
[36] = systemic / hematology / blood clotting / blood clotting - activated partial thromboplastin time + systemic / hematology / blood clotting / …
[37] = systemic / in life observation / body weight / body weight gain + systemic / organ weight / pituitary gland / relative to body weight + …
[38] = systemic / in life observation / body weight / body weight gain + systemic / in life observation / clinical signs / wetness + systemic / …
[39] = group: cholinesterase, cholinesterase / cholinesterase / cholinesterase / brain cholinesterase (che) + cholinesterase / cholinesterase / cholinesterase / …
[40] = group: systemic, systemic / clinical chemistry / glucose / glucose + systemic / organ weight / liver / nos + systemic / organ weight / liver / relative to …
[41] = group: systemic, systemic / organ weight / brain / nos + systemic / organ weight / kidney / nos
[42] = group: cholinesterase, cholinesterase / cholinesterase / cholinesterase / plasma cholinesterase (che)
[43] = group: systemic, systemic / pathology microscopic / lymph node / hemorrhage
[44] = group: systemic, systemic / pathology microscopic / lymph node / hemorrhage + systemic / pathology microscopic / lymph node / hyperplasia
[45] = group: developmental, developmental / developmental malformation / bone / short
[46] = group: maternal, systemic / in life observation / body weight / body weight + systemic / in life observation / body weight / body weight gain + systemic / in…

Cc1ncc([C@@H](CCCCCCc2ccc3c(n2)NCCC3)CC(=O)O)cn1
LOAEL (dog [1]; [24]): > 45 mg/kg/day
NOAEL (dog [1]; [24]): ≥ 45 mg/kg/day
LEL (dog [1]; [25]): 5 mg/kg/day
NEL (dog [1]; [25]): < 5 mg/kg/day
LEL (rat [2]): 2000 mg/kg/day
LOAEL (rat [2]): > 2000 mg/kg/day
NEL (rat [2]): < 2000 mg/kg/day
NOAEL (rat [2]): ≥ 2000 mg/kg/day

O=C(N[C@@H](Cc1ccccc1)[C@@H](O)C(=O)N1C[C@@H](O)[C@@H](O)C1)c1cc2cc(Cl)ccc2[nH]1 [Ingliforib]
LOAEL (rabbit [3]; [26]): > 500 mg/kg/day
NOAEL (rabbit [3]; [26]): ≥ 500 mg/kg/day
LEL (rabbit [3]; [27]): 50 mg/kg/day
NEL (rabbit [3]; [27]): < 50 mg/kg/day
LEL (rabbit [4]): 250 mg/kg/day
LOAEL (rabbit [4]): > 500 mg/kg/day
NEL (rabbit [4]): < 250 mg/kg/day
NOAEL (rabbit [4]): ≥ 500 mg/kg/day

S=C([S-])NCCNC(=S)[S-].[Na+].[Na+] [Nabam-sodium]
LEL (rat [5]; [28]): 15 mg/kg/day
NEL (rat [5]; [28]): < 15 mg/kg/day
NOAEL (rat [5]; systemic / clinical chemistry / triiodothyronine (t3) / triiodothyronine (t3), total + systemic / in life observation / clinical signs / …): 15 mg/kg/day
LOAEL (rat [5]; systemic / in life observation / clinical signs / erythema): 150 mg/kg/day
LEL (rat [6]): 80 mg/kg/day
LOAEL (rat [6]): 80 mg/kg/day
NEL (rat [6]): 0.8 mg/kg/day
NOAEL (rat [6]): 0.8 mg/kg/day
LEL (rabbit [7]; [29]): 2.62 mg/kg/day
LOAEL (rabbit [7]; [29]): 2.62 mg/kg/day
NEL (rabbit [7]; [29]): 0.328 mg/kg/day
NOAEL (rabbit [7]; [29]): 0.328 mg/kg/day
LEL (rabbit [7]; [30]): 32.8 mg/kg/day
LOAEL (rabbit [7]; [30]): 32.8 mg/kg/day
NEL (rabbit [7]; [30]): 2.62 mg/kg/day
NOAEL (rabbit [7]; [30]): 2.62 mg/kg/day

O=C([O-])c1ccc2c(c1)nc(C(=O)NC1CCN(C3CC3)CC1)n2Cc1cc(-c2ccc(Cl)s2)on1.[Na+] [AVE3247]
LEL (dog [8]): 10 mg/kg/day
LOAEL (dog [8]): > 80 mg/kg/day
NEL (dog [8]): < 10 mg/kg/day
NOAEL (dog [8]): ≥ 80 mg/kg/day
LEL (rat [9]): 2000 mg/kg/day
LOAEL (rat [9]): > 2000 mg/kg/day
NEL (rat [9]): 1000 mg/kg/day
NOAEL (rat [9]): ≥ 2000 mg/kg/day
LEL (rabbit [10]; [31]): 2000 mg/kg/day
LOAEL (rabbit [10]; [31]): > 2000 mg/kg/day
NEL (rabbit [10]; [31]): 1000 mg/kg/day
NOAEL (rabbit [10]; [31]): ≥ 2000 mg/kg/day
LEL (rabbit [10]; [32]): 500 mg/kg/day
LOAEL (rabbit [10]; [32]): 1000 mg/kg/day
NEL (rabbit [10]; [32]): < 500 mg/kg/day
NOAEL (rabbit [10]; [32]): 500 mg/kg/day
LEL (rat [11]): 200 mg/kg/day
LOAEL (rat [11]): > 2000 mg/kg/day
NEL (rat [11]): < 200 mg/kg/day
NOAEL (rat [11]): ≥ 2000 mg/kg/day
LEL (rabbit [12]; [33]): 2000 mg/kg/day
LOAEL (rabbit [12]; [33]): 2000 mg/kg/day
NEL (rabbit [12]; [33]): 500 mg/kg/day
NOAEL (rabbit [12]; [33]): 500 mg/kg/day
LEL (rabbit [12]; [34]): 500 mg/kg/day
LOAEL (rabbit [12]; [34]): 500 mg/kg/day
NEL (rabbit [12]; [30]): 200 mg/kg/day
NOAEL (rabbit [12]; [30]): 200 mg/kg/day
LEL (dog [13]): 10 mg/kg/day
LOAEL (dog [13]): > 100 mg/kg/day
NEL (dog [13]): < 10 mg/kg/day
NOAEL (dog [13]): ≥ 100 mg/kg/day
LEL (rat [14]; [35]): 500 mg/kg/day
LOAEL (rat [14]; [35]): 500 mg/kg/day
NEL (rat [14]; [35]): 200 mg/kg/day
NOAEL (rat [14]; [35]): 200 mg/kg/day
LEL (rat [14]; [34]): 2000 mg/kg/day
LOAEL (rat [14]; [34]): 2000 mg/kg/day
NEL (rat [14]; [34]): 500 mg/kg/day
NOAEL (rat [14]; [34]): 500 mg/kg/day
LEL (rat [15]): 2000 mg/kg/day
LOAEL (rat [15]): > 2000 mg/kg/day
NEL (rat [15]): 500 mg/kg/day
NOAEL (rat [15]): ≥ 2000 mg/kg/day
LEL (rat [16]; [36]): 200 mg/kg/day
NEL (rat [16]; [36]): < 200 mg/kg/day
LOAEL (rat [16]; [37]): 2000 mg/kg/day
NOAEL (rat [16]; [37]): 500 mg/kg/day

CC(=O)O[C@]1(C(C)=O)CC[C@H]2[C@@H]3C=C(Cl)C4=CC(=O)[C@@H]5C[C@@H]5[C@]4(C)[C@H]3CC[C@@]21C [Cyproterone acetate]
LEL (mouse [17]): 125 mg/kg/day
LOAEL (mouse [17]): > 125 mg/kg/day
NEL (mouse [17]): < 125 mg/kg/day
NOAEL (mouse [17]): ≥ 125 mg/kg/day
LEL (mouse [18]): 120 mg/kg/day
LOAEL (mouse [18]): > 120 mg/kg/day
NEL (mouse [18]): < 120 mg/kg/day
NOAEL (mouse [18]): ≥ 120 mg/kg/day

Oc1cc(Cl)c(Cl)cc1Cl [2,4,5-Trichlorophenol]
LOAEL (rat [19]; [38]): > 1000 mg/kg/day
NEL (rat [19]; [38]): 100 mg/kg/day
NOAEL (rat [19]; [38]): ≥ 1000 mg/kg/day
LEL (rat [19]; systemic / in life observation / clinical signs / wetness + systemic / pathology microscopic / kidney / degeneration + systemic / pathology …): 300 mg/kg/day

COP(=S)(OC)Oc1ccc([N+](=O)[O-])c(C)c1 [Fenitrothion]
LEL (rat [20]): 0.27 mg/kg/day
LOAEL (rat [20]): 0.27 mg/kg/day
NEL (rat [20]): 0.128 mg/kg/day
NOAEL (rat [20]): 0.128 mg/kg/day
LEL (rat [21]; [39]): 2 mg/kg/day
LOAEL (rat [21]; [39]): 9.16 mg/kg/day
NEL (rat [21]; [39]): 0.64 mg/kg/day
NOAEL (rat [21]; [39]): 1.83 mg/kg/day
LOAEL (rat [21]; [40]): 2 mg/kg/day
NOAEL (rat [21]; [40]): 0.64 mg/kg/day
LEL (rat [21]; [41]): 0.59 mg/kg/day
NEL (rat [21]; [41]): < 0.59 mg/kg/day
LEL (dog [22]; [42]): 0.25 mg/kg/day
LOAEL (dog [22]; [42]): 0.25 mg/kg/day
NEL (dog [22]; [42]): 0.125 mg/kg/day
NOAEL (dog [22]; [42]): 0.125 mg/kg/day
LEL (dog [22]; [43]): 0.25 mg/kg/day
LOAEL (dog [22]; [43]): 0.25 mg/kg/day
NEL (dog [22]; [44]): 0.125 mg/kg/day
NOAEL (dog [22]; [44]): 0.125 mg/kg/day
LEL (rat [23]; [45]): 25 mg/kg/day
LOAEL (rat [23]; [45]): 25 mg/kg/day
NEL (rat [23]; [45]): 8 mg/kg/day
NOAEL (rat [23]; [45]): 8 mg/kg/day
LEL (rat [23]; [46]): 25 mg/kg/day
LOAEL (rat [23]; [46]): 25 mg/kg/day
NEL (rat [23]; [46]): 8 mg/kg/day
NOAEL (rat [23]; [46]): 8 mg/kg/day
